Measured values: paper PMC10209615, “Pharmacological inhibition of LSD1 suppresses growth of hepatocellular carcinoma by inducing GADD45B” (MedComm, 2023)

Tests used:
[1] = Body weight of tumor‐bearing mice (HepG2, Hep3B, PDX1, PDX2); format: in vivo; conditions: CDX and PDX models, compared with control
Description: (§1) When the tumor volume reached approximately 100 mm^3, CDX & PDX tumor‐bearing mice were randomly divided into groups: (1) blank solvent; (2) ZY0511 50 mg/kg per day, i.p.; (3) ZY0511 100 mg/kg per day, i.p.; and (4) combinatorial treatment of ZY0511 50 mg/kg with DTP3 30 mg/kg, per day, i.p. Tumor sizes and animal body weights were monitored every 3 days, and tumor volumes were calculated as 0.5 × length × width^2. TGI rate was calculated as (1 − tumor volume of treated group/tumor volume of control group) x 100%.

PDX3 tumors = assay: Third PDX model (PDX3), ZY0511 and DTP3; format: in vivo, NOD/SCID mice
Description: (§2) For CDX models, HCC cells (HepG2, Hep3B) were harvested, and cells suspension (5 × 10^6 − 1 × 10^7 cells per mouse) were subcutaneously injected into the hind flank region of nude mice. For PDX models, fresh HCC tissues obtained from West China Hospital were minced into 2–5 mm^3 sizes to build the PDX models. The HCC tissue fragments were transplanted into the hind flank region of NOD/SCID mice within 2 h. Once the tumor volume reached ∼2 cm^3, the PDX models were expanded.
as §1
Both procedures were carried out as previously described.[21] In brief, samples were fixated in 4% paraformaldehyde and consequently paraffin‐coated. Thin tissue segments (4 μm) were prepared, and H&E staining was performed. […]

HepG2 xenograft = assay: Cell‐derived xenograft (CDX) model; format: in vivo, nude mice; conditions: 100 mg/kg i.p., 18 days
Description: as §2, §1

Hep3B xenograft = assay: Cell‐derived xenograft (CDX) model; format: in vivo, nude mice; conditions: 100 mg/kg i.p., 18 days
Description: as §2, §1

Hck = biological target: T1, Hck (Homo sapiens, UniProt P08631); assay: Kinase activity detection (Eurofins); format: biochemical; conditions: ZY0511 1 µM, read-out: Inhibition rate
T1 construct: purchased Eurofins Pharma Discovery Services (KinaseProfiler)
Description: (§3) The activity of ZY0511 against 104 cancer‐related kinases was carried out by Eurofins Pharma Discovery Services (Celle Lévescault, France).

CDK5/p35 = biological target: T2, CDK5/p35 (Homo sapiens, UniProt Q00535); assay: Kinase activity detection (Eurofins); format: biochemical; conditions: ZY0511 1 µM, read-out: Inhibition rate
T2 construct: purchased Eurofins Pharma Discovery Services (KinaseProfiler)
Description: as §3

BRK = biological target: T3, BRK (Homo sapiens, UniProt Q13882); assay: Kinase activity detection (Eurofins); format: biochemical; conditions: ZY0511 1 µM, read-out: Inhibition rate
T3 construct: purchased Eurofins Pharma Discovery Services (KinaseProfiler)
Description: as §3

B-Raf (V599E) = biological target: T4, B-Raf (V599E) (Homo sapiens, UniProt P15056, V600E); assay: Kinase activity detection (Eurofins); format: biochemical; conditions: ZY0511 1 µM, read-out: Inhibition rate
T4 construct: purchased Eurofins Pharma Discovery Services (KinaseProfiler)
Description: as §3

IKKε = biological target: T5, IKKε (Homo sapiens, UniProt Q14164); assay: Kinase activity detection (Eurofins); format: biochemical; conditions: ZY0511 1 µM, read-out: Activation rate
T5 construct: purchased Eurofins Pharma Discovery Services (KinaseProfiler)
Description: as §3

[2] = biological target: T6, PI3 Kinase (p110α (H1047R)/p85α) (Homo sapiens, UniProt P42336, H1047R); assay: Kinase activity detection (Eurofins); format: biochemical; conditions: ZY0511 1 µM, read-out: Inhibition rate
T6 construct: purchased Eurofins Pharma Discovery Services (KinaseProfiler)
Description: as §3

EphB4 = biological target: T7, EphB4 (Homo sapiens, UniProt P54760); assay: Kinase activity detection (Eurofins); format: biochemical; conditions: ZY0511 1 µM, read-out: Activation rate
T7 construct: purchased Eurofins Pharma Discovery Services (KinaseProfiler)
Description: as §3

PDGFRα = biological target: T8, PDGFRα (Homo sapiens, UniProt P16234); assay: Kinase activity detection (Eurofins); format: biochemical; conditions: ZY0511 1 µM, read-out: Activation rate
T8 construct: purchased Eurofins Pharma Discovery Services (KinaseProfiler)
Description: as §3

CSK = biological target: T9, CSK (Homo sapiens, UniProt P41240); assay: Kinase activity detection (Eurofins); format: biochemical; conditions: ZY0511 1 µM, read-out: Inhibition rate
T9 construct: purchased Eurofins Pharma Discovery Services (KinaseProfiler)
Description: as §3

MAPK2 = biological target: T10, MAPK2 (Homo sapiens, UniProt P28482); assay: Kinase activity detection (Eurofins); format: biochemical; conditions: ZY0511 1 µM, read-out: Activation rate
T10 construct: purchased Eurofins Pharma Discovery Services (KinaseProfiler)
Description: as §3

IKKα = biological target: T11, IKKα (Homo sapiens, UniProt O15111); assay: Kinase activity detection (Eurofins); format: biochemical; conditions: ZY0511 1 µM, read-out: Activation rate
T11 construct: purchased Eurofins Pharma Discovery Services (KinaseProfiler)
Description: as §3

Pim-1 = biological target: T12, Pim-1 (Homo sapiens, UniProt P11309); assay: Kinase activity detection (Eurofins); format: biochemical; conditions: ZY0511 1 µM, read-out: Inhibition rate
T12 construct: purchased Eurofins Pharma Discovery Services (KinaseProfiler)
Description: as §3

TrkA = biological target: T13, TrkA (Homo sapiens, UniProt P04629); assay: Kinase activity detection (Eurofins); format: biochemical; conditions: ZY0511 1 µM, read-out: Activation rate
T13 construct: purchased Eurofins Pharma Discovery Services (KinaseProfiler)
Description: as §3

Hep3B [3] = assay: EdU incorporation assay; conditions: 96 h
PLC/PRF/5 = assay: EdU incorporation assay; conditions: PLC/PRF/5, 96 h
LSD1 knockout JHH7 cells = assay: Proliferation of LSD1 knockout JHH7 cells after ZY0511; format: cell-based, human; conditions: ZY0511 treatment for 96 h
Description: Cell viability was determined using Cell Counting Kit‐8 (CCK8; Dojindo) or 3‐(4, 5‐dimethylthiazol‐2‐yl)‐2,5‐diphenyltetrazoliumbromide (MTT, Sigma Aldrich) assay. […] Consequently, cell viability was determined using a microplate reader (Thermo Fisher) at 450 nm for CCK8 assay, or 570 nm for MTT assay, at different time points. The IC50 values and CI values were analyzed and calculated using GraphPad Prism 8 and CompuSyn (version 1.0; http://www.combosyn.com), respectively.

[4] = test system: 104 cancer‐related kinases; assay: Kinase activity detection (Eurofins), whole panel; format: biochemical; conditions: ZY0511 1 μM
Description: as §3

Hep3B [5] = assay: Apoptosis analysis (Annexin V, flow cytometry); format: cell-based, human; conditions: 48 h
Description: (§4) Cells were fixed using 70% ethanol and stained with a Cell Cycle Detection Kit (KeyGEN). For apoptosis analysis, cells were exposed to ZY0511 alone or in combination with DTP3 for 48 h. Cells were harvested and stained with PE Annexin V Apoptosis Detection Kit (BD). The cell cycle or apoptosis induction was detected by using a flow cytometer (Agilent NovoCyte). Results were assessed by NovoExpress software (Agilent NovoCyte).

HepG2 = assay: Apoptosis analysis (Annexin V, flow cytometry); format: cell-based, human; conditions: HepG2, 48 h
Description: as §4

T9 sequence (P41240 whole entry): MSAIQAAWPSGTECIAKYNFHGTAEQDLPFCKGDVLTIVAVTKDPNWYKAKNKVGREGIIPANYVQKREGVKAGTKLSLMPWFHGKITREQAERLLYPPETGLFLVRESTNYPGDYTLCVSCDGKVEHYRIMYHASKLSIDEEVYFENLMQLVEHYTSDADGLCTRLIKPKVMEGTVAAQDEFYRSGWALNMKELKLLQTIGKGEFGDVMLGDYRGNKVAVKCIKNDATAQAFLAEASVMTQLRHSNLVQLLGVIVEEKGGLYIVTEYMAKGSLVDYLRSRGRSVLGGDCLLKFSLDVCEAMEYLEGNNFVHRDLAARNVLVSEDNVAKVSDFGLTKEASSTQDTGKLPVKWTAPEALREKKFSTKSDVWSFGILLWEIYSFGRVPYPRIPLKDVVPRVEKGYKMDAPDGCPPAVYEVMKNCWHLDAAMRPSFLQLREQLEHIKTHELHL
T3 sequence (Q13882 whole entry): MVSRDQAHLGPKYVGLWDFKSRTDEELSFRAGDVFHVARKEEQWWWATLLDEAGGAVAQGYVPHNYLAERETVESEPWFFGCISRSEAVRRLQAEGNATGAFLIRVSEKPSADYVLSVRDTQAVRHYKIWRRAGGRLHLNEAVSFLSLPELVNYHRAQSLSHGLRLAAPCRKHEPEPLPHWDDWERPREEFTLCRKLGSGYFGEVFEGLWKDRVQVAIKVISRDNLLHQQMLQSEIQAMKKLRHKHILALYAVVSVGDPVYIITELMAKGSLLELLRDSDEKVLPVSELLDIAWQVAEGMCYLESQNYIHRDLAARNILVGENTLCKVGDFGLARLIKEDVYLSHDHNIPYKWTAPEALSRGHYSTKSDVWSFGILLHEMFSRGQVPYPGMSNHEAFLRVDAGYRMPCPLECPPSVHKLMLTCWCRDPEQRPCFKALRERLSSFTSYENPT
T2 sequence (Q00535 whole entry): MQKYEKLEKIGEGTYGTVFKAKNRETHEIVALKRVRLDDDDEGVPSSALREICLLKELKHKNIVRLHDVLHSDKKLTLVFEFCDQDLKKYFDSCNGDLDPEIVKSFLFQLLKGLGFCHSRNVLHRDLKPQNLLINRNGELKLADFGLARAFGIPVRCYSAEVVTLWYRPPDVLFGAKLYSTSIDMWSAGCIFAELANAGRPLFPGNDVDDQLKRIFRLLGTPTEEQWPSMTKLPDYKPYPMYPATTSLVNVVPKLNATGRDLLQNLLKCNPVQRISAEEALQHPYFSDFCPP
T2 sequence (Q15078 whole entry partner): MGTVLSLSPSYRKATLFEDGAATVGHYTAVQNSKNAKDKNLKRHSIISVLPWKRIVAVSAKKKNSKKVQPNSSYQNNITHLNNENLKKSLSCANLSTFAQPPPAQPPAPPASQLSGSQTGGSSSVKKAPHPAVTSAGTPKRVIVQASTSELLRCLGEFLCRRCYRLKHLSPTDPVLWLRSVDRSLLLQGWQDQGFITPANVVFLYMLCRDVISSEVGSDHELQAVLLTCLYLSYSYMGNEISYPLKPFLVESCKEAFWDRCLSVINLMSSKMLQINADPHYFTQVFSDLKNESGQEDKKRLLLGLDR
T8 sequence (P16234 24-1089): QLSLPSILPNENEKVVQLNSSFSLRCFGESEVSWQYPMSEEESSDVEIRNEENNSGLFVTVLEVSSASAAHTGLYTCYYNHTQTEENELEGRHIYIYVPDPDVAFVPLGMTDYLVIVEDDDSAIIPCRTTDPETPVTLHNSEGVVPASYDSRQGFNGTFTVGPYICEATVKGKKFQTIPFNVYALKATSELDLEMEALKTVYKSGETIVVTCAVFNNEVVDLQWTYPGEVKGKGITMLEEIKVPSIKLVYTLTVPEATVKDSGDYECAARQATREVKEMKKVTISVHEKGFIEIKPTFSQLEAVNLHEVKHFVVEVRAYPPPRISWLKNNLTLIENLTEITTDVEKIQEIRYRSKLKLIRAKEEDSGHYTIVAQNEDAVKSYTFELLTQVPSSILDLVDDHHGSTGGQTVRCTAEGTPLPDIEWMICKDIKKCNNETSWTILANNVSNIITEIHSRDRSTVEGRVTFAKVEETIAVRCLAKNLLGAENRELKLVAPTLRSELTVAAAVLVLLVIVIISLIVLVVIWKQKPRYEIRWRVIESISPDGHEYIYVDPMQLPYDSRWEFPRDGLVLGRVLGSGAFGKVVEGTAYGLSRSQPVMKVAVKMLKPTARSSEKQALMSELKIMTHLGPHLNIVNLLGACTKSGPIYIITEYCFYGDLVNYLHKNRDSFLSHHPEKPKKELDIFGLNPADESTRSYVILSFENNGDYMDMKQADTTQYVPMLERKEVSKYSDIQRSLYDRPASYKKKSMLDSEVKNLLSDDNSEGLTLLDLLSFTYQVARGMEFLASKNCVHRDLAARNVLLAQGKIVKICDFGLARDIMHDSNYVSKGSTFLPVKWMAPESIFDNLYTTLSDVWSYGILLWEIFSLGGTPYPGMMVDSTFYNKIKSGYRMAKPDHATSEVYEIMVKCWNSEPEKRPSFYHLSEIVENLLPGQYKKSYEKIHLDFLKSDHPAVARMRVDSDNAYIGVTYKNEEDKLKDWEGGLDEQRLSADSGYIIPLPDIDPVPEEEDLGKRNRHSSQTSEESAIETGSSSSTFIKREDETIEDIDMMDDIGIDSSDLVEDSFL
T1 sequence (P08631 whole entry): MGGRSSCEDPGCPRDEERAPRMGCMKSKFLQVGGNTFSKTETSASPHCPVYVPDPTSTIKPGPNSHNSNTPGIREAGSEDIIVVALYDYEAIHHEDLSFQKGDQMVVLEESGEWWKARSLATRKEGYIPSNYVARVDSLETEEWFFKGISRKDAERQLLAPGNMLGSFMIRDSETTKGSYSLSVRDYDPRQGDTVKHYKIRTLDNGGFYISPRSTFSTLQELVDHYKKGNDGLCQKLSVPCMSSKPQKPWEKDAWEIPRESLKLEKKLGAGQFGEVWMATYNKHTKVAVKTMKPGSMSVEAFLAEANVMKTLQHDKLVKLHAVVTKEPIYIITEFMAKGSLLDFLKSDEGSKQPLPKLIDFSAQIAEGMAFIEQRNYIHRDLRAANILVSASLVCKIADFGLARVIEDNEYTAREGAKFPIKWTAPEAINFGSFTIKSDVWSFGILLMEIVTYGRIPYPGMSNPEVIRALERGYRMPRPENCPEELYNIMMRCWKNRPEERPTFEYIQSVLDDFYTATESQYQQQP
T7 sequence (P54760 16-987): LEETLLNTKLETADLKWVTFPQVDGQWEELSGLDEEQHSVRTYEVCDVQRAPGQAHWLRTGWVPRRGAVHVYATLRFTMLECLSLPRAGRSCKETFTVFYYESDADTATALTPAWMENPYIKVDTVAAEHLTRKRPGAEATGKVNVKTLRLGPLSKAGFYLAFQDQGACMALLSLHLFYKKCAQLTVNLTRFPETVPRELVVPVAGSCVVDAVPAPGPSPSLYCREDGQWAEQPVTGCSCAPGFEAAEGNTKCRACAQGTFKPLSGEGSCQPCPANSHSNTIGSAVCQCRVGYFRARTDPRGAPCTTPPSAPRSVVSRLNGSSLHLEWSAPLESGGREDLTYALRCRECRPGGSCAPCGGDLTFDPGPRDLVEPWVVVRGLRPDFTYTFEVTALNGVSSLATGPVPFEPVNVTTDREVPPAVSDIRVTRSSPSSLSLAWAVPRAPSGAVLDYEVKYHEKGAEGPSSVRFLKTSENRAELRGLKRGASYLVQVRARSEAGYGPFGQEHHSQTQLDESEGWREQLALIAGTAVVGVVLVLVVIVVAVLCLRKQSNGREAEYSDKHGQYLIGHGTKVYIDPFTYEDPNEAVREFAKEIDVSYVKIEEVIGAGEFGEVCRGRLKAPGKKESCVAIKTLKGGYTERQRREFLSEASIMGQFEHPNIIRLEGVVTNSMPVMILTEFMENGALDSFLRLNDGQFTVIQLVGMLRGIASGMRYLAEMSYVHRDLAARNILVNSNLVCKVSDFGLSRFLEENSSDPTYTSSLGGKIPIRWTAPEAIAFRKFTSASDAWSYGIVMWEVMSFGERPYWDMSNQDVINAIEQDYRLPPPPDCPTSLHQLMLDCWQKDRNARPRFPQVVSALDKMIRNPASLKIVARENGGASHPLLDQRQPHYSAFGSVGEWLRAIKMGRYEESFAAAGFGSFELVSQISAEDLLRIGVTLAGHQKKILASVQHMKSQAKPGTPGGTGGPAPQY
T4 sequence (P15056 417-766 V600E limits assumed): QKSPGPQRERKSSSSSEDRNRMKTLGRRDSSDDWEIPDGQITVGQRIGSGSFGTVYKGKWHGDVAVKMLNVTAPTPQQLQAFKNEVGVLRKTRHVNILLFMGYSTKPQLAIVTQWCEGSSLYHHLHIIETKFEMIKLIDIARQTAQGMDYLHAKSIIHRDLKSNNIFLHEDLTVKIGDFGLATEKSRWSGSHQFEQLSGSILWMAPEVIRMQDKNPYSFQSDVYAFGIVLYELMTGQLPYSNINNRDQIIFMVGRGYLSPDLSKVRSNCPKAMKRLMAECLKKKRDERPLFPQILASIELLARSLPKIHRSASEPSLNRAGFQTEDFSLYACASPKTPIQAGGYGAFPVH
T10 sequence (P28482 whole entry): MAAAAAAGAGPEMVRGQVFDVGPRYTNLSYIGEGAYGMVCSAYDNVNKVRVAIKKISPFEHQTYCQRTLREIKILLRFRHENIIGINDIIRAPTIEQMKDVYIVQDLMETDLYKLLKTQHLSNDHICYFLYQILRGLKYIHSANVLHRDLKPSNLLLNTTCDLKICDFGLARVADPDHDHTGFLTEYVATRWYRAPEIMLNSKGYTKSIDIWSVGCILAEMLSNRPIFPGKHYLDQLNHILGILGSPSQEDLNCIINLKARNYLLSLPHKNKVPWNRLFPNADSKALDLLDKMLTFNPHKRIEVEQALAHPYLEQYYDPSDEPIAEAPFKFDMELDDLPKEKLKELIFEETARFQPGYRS

For `O=C(N/N=C1\CCc2c(Cl)ccc(O)c21)c1cccc(S(=O)(=O)N2CCOCC2)c1` [ZY0511, (E)‐N'‐(2, 3‐dihydro‐1H‐inden‐1‐ylidene) benzohydrazides], the “body weight of mice” value [1] was “did not change”, the TGI (PDX3 tumors; PDX3, ZY0511 50 mg/kg i.p., 15 days) was 32.79% and the mice body weight (PDX3 tumors; PDX3, ZY0511 and/or DTP3, 15 days) was “no change”. For the same compound, the “blood routine indexes (red blood cell, white blood cell, lymph cell)” value (Acute toxicity assay; 400 mg/kg i.p., day 14) was “did not change”, the “liver and kidney function indexes (ALT, AST, creatinine)” value (Acute toxicity assay; 400 mg/kg i.p., day 14) was “did not change” and the “pathology of main organs (heart, liver, spleen, lung, kidney)” value (Acute toxicity assay; 400 mg/kg i.p., day 14, H&E) was “No pathological abnormality”. The “no observed adverse effect level” value (Acute toxicity assay; mice, i.p.) was 400 mg/kg, the “tumor growth inhibition (TGI)” value (HepG2 xenograft) was 58.29% and the “tumor growth inhibition (TGI)” value (Hep3B xenograft) was 52.70%. It also gave an inhibition at 1 µM (Hck) of 29%, an inhibition at 1 µM (CDK5/p35) of 9% and an inhibition at 1 µM (BRK) of 4%. The inhibition at 1 µM (B-Raf (V599E)) was 51%, the activation at 1 µM (IKKε) was 1% and the inhibition at 1 µM [2] was 6%. The activation at 1 µM (EphB4) was 5%, the activation at 1 µM (PDGFRα) was 33% and the inhibition at 1 µM (CSK) was 4%. It also gave an activation at 1 µM (MAPK2) of 16%, an activation at 1 µM (IKKα) of 13% and an inhibition at 1 µM (Pim-1) of 15%. For the same compound, the activation at 1 µM (TrkA) was 3%, the “inhibition rate of EdU‐positive cells” value (Hep3B [3]) was 99.9% and the “inhibition rate of EdU‐positive cells” value (PLC/PRF/5) was 9.2%. The “decrease of sensitivity of JHH7 cells to ZY0511 by LSD1 knockout” value (LSD1 knockout JHH7 cells) was 20%, the “effect against other kinases, including FGFR, VEGFR, and PDGFR” value [4] was “no effect” and the apoptotic rate (Hep3B [5]) was 6.98%. It also gave an apoptotic rate (HepG2) of 6.49%.
